Data set [1] deals with IL-6 mRNA. Kind of data set: IL-6 mRNA in LPS-activated primary murine macrophages. The note with it: average of 3 treatments. The class given is cell-based, mouse. The essentials: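 Thioglycollate-elicited peritoneal macrophages from female C57Bl/6 mice, transfected with miRNA-targeting oligomeric compounds via FuGENE 6 (1 μL per 100 nM compound) for ~24–28 h at 37 °C, optionally primed 4 h with 100 ng/mL IFN-gamma, then stimulated 24 h with 100 ng/mL LPS. IL-6 mRNA quantified by real-time PCR.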

For data set [2], the system named is mir-143 pri-miRNA. Kind of data set: mir-143 pri-miRNA levels in differentiating adipocytes (real-time RT-PCR). The class given is cell-based, human. The note with it: differentiated adipocytes 9 days vs 3 days post-differentiation. The method, then: Here, oligomeric compounds targeting mir-143 were transfected into preadipocytes which were then induced to differentiate, in order to assess the effects of these compounds on mir-143 pri-miRNA levels during differentiation. mir-143 pri-miRNA levels were assessed on days 3 and 9 after differentiation.
In addition to the uniform 2′-MOE phosphorothioate oligomeric compound ISIS Number 327901 (SEQ ID NO: 319) targeting mature mir-143, a 5-10-7 gapmer oligomeric compound, ISIS Number 340927 (SEQ ID NO: 319), was designed to target mature mir-143. […] ISIS 342672 and ISIS 342673 are uniform 2′-MOE phosphorothioate oligomeric compounds 22 nucleotides in length. ISIS Number 342677 (SEQ ID NO: 789) and ISIS Number 342678 (SEQ ID NO: 758) are the corresponding 5-10-7 scrambled 2′-MOE gapmer oligomeric compounds. All cytidine residues are 5-methylcytidines. […]
These compounds were transfected into differentiating adipocytes and their effects on levels of the mir-143 pri-miRNA molecule were assessed in pre-adipocytes vs. differentiated adipocytes, by real-time RT-PCR using the primer/probe set specific for the mir-143 pri-miRNA (forward primer=ISIS 339314, SEQ ID NO: 786; reverse primer=ISIS 342897, SEQ ID NO.: 787; probe=ISIS 342898, SEQ ID NO.: 788). […]
(In general: In qPCR the cycle at which signal appears reflects the starting amount.)

In the oligonucleotide strings, read from the 5' end, every base follows the letter of its sugar. An asterisk marks phosphorothioate; unmarked linkages are phosphodiester. Other units and linkages are bracketed, terminal groups are in braces. A string of capitals states the bases alone. e = 2'-O-(2-methoxyethyl) (MOE); [5mC] = 5-methylcytosine

For “327941 (antisense eA*eA*e[5mC]*e[5mC]*e[5mC]*eA*e[5mC]*e[5mC]*eG*eA*e[5mC]*eA*eG*e[5mC]*eA*eA*eT*eG*eA*eA*eT*eG*eT*eT) [compound 327941]”, the “IL-6 mRNA expression, % UTC” value came to 181 % UTC in data set [1] (75 nM, +IFN); 293 % UTC in data set [1] (75 nM, −IFN); 197 % UTC in data set [1] (150 nM, +IFN); 325 % UTC in data set [1] (150 nM, −IFN); 197 % UTC in data set [1] (300 nM, +IFN); 271 % UTC in data set [1] (300 nM, −IFN). Also, the “IL-6 mRNA expression, % UTC” value amounted to 301 % UTC in data set [1] (600 nM, +IFN) and 501 % UTC in data set [1] (600 nM, −IFN).

“327921 (antisense e[5mC]*eT*eT*e[5mC]*e[5mC]*eA*eG*eT*e[5mC]*eG*eG*eG*eG*eA*eT*eG*eT*eT*eT*eA*e[5mC]*eA) [compound 327921]”: the “IL-6 mRNA expression, % UTC” value in data set [1] (75 nM, +IFN) came out at 122 % UTC; in data set [1] (75 nM, −IFN), 223 % UTC; in data set [1] (150 nM, +IFN), 144 % UTC; in data set [1] (150 nM, −IFN) it was 294 % UTC; in data set [1] (300 nM, +IFN), 287 % UTC; in data set [1] (300 nM, −IFN), 522 % UTC. The “IL-6 mRNA expression, % UTC” value was determined as 313 % UTC in data set [1] (600 nM, +IFN) and 632 % UTC in data set [1] (600 nM, −IFN).

Consider “TGAGCTACAGTGCTTCATCTCA [ISIS 327901] (chemistry not given here) [uniform 2′-MOE PS; targets mir-143]”, for which the “levels of the mir-143 pri-miRNA” value in data set [2] was “approximately 4 fold”.
